In one assay the target is GST tagged IRAK-4 (Homo sapiens (Human), UniProt Q9NWZ3). The assay can be described thus: IRAK-4 Kinase Assay (IMAP fluorescence polarization). Format: biochemical. The settings on record: 100 μM ATP, 30 minutes at 25° C. The method, boiled down:
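Activity was read by IMAP fluorescence polarization, where phosphopeptide binding to M(III) nanoparticles raises FP. The 30-minute, 25° C reaction used 100 μM ATP, 100 nM RP7030 substrate and 0.5 nM GST-IRAK-4 in pH 7.2 Tris buffer with MgCl2, DTT and Tween 20.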
For orientation: In fluorescence polarisation assays a small probe gives low polarisation when free and higher when bound to something large.
Sequence of GST tagged IRAK-4 (Q9NWZ3 whole entry): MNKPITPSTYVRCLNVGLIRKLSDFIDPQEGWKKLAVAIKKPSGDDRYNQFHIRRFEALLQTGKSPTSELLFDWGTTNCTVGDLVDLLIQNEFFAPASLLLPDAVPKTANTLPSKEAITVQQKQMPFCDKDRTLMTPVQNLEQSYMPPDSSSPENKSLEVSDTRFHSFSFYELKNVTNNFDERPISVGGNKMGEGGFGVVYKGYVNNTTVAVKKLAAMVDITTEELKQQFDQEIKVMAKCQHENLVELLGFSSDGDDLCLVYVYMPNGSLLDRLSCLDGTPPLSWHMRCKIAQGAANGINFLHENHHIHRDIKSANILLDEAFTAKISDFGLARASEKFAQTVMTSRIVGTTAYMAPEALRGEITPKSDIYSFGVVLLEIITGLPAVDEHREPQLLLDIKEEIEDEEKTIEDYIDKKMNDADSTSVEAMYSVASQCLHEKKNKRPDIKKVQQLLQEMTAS
Turning to `Cc1ccc(-n2nc(N3CCN(C4CCCCC4)CC3)cc2NC(=O)c2cnn3cccnc23)nc1` [Example 319, N-[3-(4-cyclohexylpiperazin-1-yl)-1-(5-methylpyridin-2-yl)-1H-pyrazol-5-yl]pyrazolo[1,5-a]pyrimidine-3-carboxamide], the concentration for half-maximal inhibition (IC50) is under 0.1 µM. On the same count and under the same terms, next, `Cc1ccc(-n2nc(N3CCN(C4CCC4)CC3)cc2NC(=O)c2cnn3cccnc23)nc1` [Example 320, N-[3-(4-cyclobutylpiperazin-1-yl)-1-(5-methylpyridin-2-yl)-1H-pyrazol-5-yl]pyrazolo[1,5-a]pyrimidine-3-carboxamide]: under 0.1 µM; `Cc1ccc(-n2nc(N3CCN(C4CCOCC4)CC3)cc2NC(=O)c2cnn3cccnc23)nc1` [Example 321, N-{1-(5-methylpyridin-2-yl)-3-[4-(tetrahydro-2H-pyran-4-yl)piperazin-1-yl]-1H-pyrazol-5-yl}pyrazolo[1,5-a]pyrimidine-3-carboxamide]: under 0.1 µM; `Cc1ccc(-n2nc(N3CCN(C4CCCCCC4)CC3)cc2NC(=O)c2cnn3cccnc23)nc1` [Example 322, N-[3-(4-cycloheptylpiperazin-1-yl)-1-(5-methylpyridin-2-yl)-1H-pyrazol-5-yl]pyrazolo[1,5-a]pyrimidine-3-carboxamide]: under 0.1 µM.

The compound `Cc1ccc(-n2nc(N3CCN(C4CCCC4)CC3)cc2NC(=O)c2cnn3cccnc23)nc1` [Example 323, N-[3-(4-cyclopentylpiperazin-1-yl)-1-(5-methylpyridin-2-yl)-1H-pyrazol-5-yl]pyrazolo[1,5-a]pyrimidine-3-carboxamide] showed an IC50 of under 0.1 µM.

`Cc1ccc(-n2nc(N3CCN(CC(C)C)CC3)cc2NC(=O)c2cnn3cccnc23)nc1` [Example 324, N-{3-[4-(2-methylpropyl)piperazin-1-yl]-1-(5-methylpyridin-2-yl)-1H-pyrazol-5-yl}pyrazolo[1,5-a]pyrimidine-3-carboxamide] had a 50% inhibitory concentration (IC50) of under 0.1 µM.

Take `Cc1ccc(-n2nc(C3CCN(C4CCCC4)CC3)cc2NC(=O)c2cnn3cccnc23)cc1` [Example 325, N-(3-(1-cyclopentylpiperidin-4-yl)-1-(p-tolyl)-1H-pyrazol-5-yl)pyrazolo[1,5-a]pyrimidine-3-carboxamide]: the IC50 was under 0.1 µM. On to `Cc1ccc(-n2nc(-c3ccc(CO)nc3)cc2NC(=O)c2cnn3cccnc23)cc1` [Example 330, N-{3-[6-(hydroxymethyl)pyridin-3-yl]-1-(4-methylphenyl)-1H-pyrazol-5-yl}pyrazolo[1,5-a]pyrimidine-3-carboxamide], for which the half-inhibitory concentration (IC50) is under 0.1 µM. `Cc1ccc(-n2nc(-c3ccc(S(=O)(=O)C4CC4)cc3)cc2NC(=O)c2cnn3cccnc23)cc1` [Example 336, N-{3-[4-(cyclopropylsulfonyl)phenyl]-1-(4-methylphenyl)-1H-pyrazol-5-yl}pyrazolo[1,5-a]pyrimidine-3-carboxamide]: the IC50 is under 0.1 µM.

Compound `Cc1ccc(-n2nc(-c3ccc(S(C)(=O)=O)cc3C(F)(F)F)cc2NC(=O)c2cnn3cccnc23)cc1` [Example 338, N-{1-(4-methylphenyl)-3-[4-(methylsulfonyl)-2-(trifluoromethyl)phenyl]-1H-pyrazol-5-yl}pyrazolo[1,5-a]pyrimidine-3-carboxamide] displayed an IC50 of 0.1 µM. This lies in the sub-micromolar range.

For `Cc1ccc(-n2nc(-c3ccc(S(=O)(=O)N4CCN(C)CC4)cc3)cc2NC(=O)c2cnn3cccnc23)cc1` [Example 342, N-[1-(4-methylphenyl)-3-{4-[(4-methylpiperazin-1-yl)sulfonyl]phenyl}-1H-pyrazol-5-yl]pyrazolo[1,5-a]pyrimidine-3-carboxamide], the IC50 is under 0.1 µM. Same read-out and setting: the same measure for `CCN(CC)S(=O)(=O)c1ccc(-c2cc(NC(=O)c3cnn4cccnc34)n(-c3ccc(C)cc3)n2)cc1` [Example 343, N-{3-[4-(diethylsulfamoyl)phenyl]-1-(4-methylphenyl)-1H-pyrazol-5-yl}pyrazolo[1,5-a]pyrimidine-3-carboxamide]: under 0.1 µM; for `Cc1ccc(-n2nc(-c3ccc(S(=O)(=O)N4CCC4)cc3)cc2NC(=O)c2cnn3cccnc23)cc1` [Example 344, N-{3-[4-(azetidin-1-ylsulfonyl)phenyl]-1-(4-methylphenyl)-1H-pyrazol-5-yl}pyrazolo[1,5-a]pyrimidine-3-carboxamide]: under 0.1 µM; for `Cc1ccc(-n2nc(-c3ccc(S(=O)(=O)N(C)C)cc3C)cc2NC(=O)c2cnn3cccnc23)cc1` [Example 345, N-{3-[4-(dimethylsulfamoyl)-2-methylphenyl]-1-(4-methylphenyl)-1H-pyrazol-5-yl}pyrazolo[1,5-a]pyrimidine-3-carboxamide]: under 0.1 µM. Still for that read-out and setting: the same measure for `CNS(=O)(=O)c1ccc(-c2cc(NC(=O)c3cnn4cccnc34)n(-c3ccc(C)cc3)n2)cc1` [Example 347, N-{1-(4-methylphenyl)-3-[4-(methylsulfamoyl)phenyl]-1H-pyrazol-5-yl}pyrazolo[1,5-a]pyrimidine-3-carboxamide]: under 0.1 µM; for `CNC(=O)c1ccc(-c2cc(NC(=O)c3cnn4cccnc34)n(-c3ccc(C)cc3)n2)cc1` [Example 348, N-{3-[4-(methylcarbamoyl)phenyl]-1-(4-methylphenyl)-1H-pyrazol-5-yl}pyrazolo[1,5-a]pyrimidine-3-carboxamide]: under 0.1 µM. Still for that read-out and setting: next, `Cc1ccc(-n2nc(-c3ccc(C(=O)N(C)C)cc3)cc2NC(=O)c2cnn3cccnc23)cc1` [Example 349, N-{3-[4-(dimethylcarbamoyl)phenyl]-1-(4-methylphenyl)-1H-pyrazol-5-yl}pyrazolo[1,5-a]pyrimidine-3-carboxamide]: under 0.1 µM.

The same assay, now with this note: 100 μM ATP, 30 minutes at 25° C.; μM.
Compound `COc1ncc(CN2CC(c3cc(NC(=O)c4cnn5cccnc45)n(-c4ccc(C)cc4)n3)C2)cn1` [Example 317, N-[3-{1-[(2-methoxypyrimidin-5-yl)methyl]azetidin-3-yl}-1-(4-methylphenyl)-1H-pyrazol-5-yl]pyrazolo[1,5-a]pyrimidine-3-carboxamide] registered a half-inhibitory concentration (IC50) of under 1 µM. The same measure, in the same setting: the same measure for `Cc1ccc(-n2nc(C3CN(Cc4cocn4)C3)cc2NC(=O)c2cnn3cccnc23)cc1` [Example 318, N-{1-(4-methylphenyl)-3-[1-(1,3-oxazol-4-ylmethyl)azetidin-3-yl]-1H-pyrazol-5-yl}pyrazolo[1,5-a]pyrimidine-3-carboxamide]: under 1 µM. Consider `Cc1ccc(-n2nc(-c3cnn(C)c3)cc2NC(=O)c2cnn3cccnc23)cc1` [Example 326, N-[1′-methyl-1-(4-methylphenyl)-1H,1′H-3,4′-bipyrazol-5-]pyrazolo[1,5-a]pyrimidine-3-carboxamide], for which the half-maximal inhibitory concentration (IC50) is under 1 µM. Same read-out and setting: next, `Cc1ccc(-n2nc(-c3ccnc(CO)c3)cc2NC(=O)c2cnn3cccnc23)cc1` [Example 329, N-{3-[2-(hydroxymethyl)pyridin-4-yl]-1-(4-methylphenyl)-1H-pyrazol-5-yl}pyrazolo[1,5-a]pyrimidine-3-carboxamide]: under 1 µM; `Cc1ccc(-n2nc(-c3ccnn3C)cc2NC(=O)c2cnn3cccnc23)cc1` [Example 331, N-[2′-methyl-1-(4-methylphenyl)-1H,2′H-3,3′-bipyrazol-5-yl]pyrazolo[1,5-a]pyrimidine-3-carboxamide]: under 1 µM; `Cc1ccc(-n2nc(-c3cncc(CO)c3)cc2NC(=O)c2cnn3cccnc23)cc1` [Example 332, N-{3-[5-(hydroxymethyl)pyridin-3-yl]-1-(4-methylphenyl)-1H-pyrazol-5-yl}pyrazolo[1,5-a]pyrimidine-3-carboxamide]: under 1 µM.

Compound `Cc1ccc(-n2nc(-c3cnn(CCS(C)(=O)=O)c3)cc2NC(=O)c2cnn3cccnc23)cc1` [Example 333, N-{1-(4-methylphenyl)-1′-[2-(methylsulfonyl)ethyl]-1H,1′H-3,4′-bipyrazol-5-yl}pyrazolo[1,5-a]pyrimidine-3-carboxamide] displayed an IC50 of under 1 µM. As to `Cc1ccc(-n2nc(-c3conc3C)cc2NC(=O)c2cnn3cccnc23)cc1` [Example 334, N-[3-(3-methylisoxazol-4-yl)-1-(4-methylphenyl)-1H-pyrazol-5-yl]pyrazolo[1,5-a]pyrimidine-3-carboxamide], the half-maximal inhibitory concentration (IC50) was under 1 µM.

On to `Cc1ccc(-n2nc(-c3csc(N4CCOCC4)n3)cc2NC(=O)c2cnn3cccnc23)cc1` [Example 335, N-[1-(4-methylphenyl)-3-(2-morpholin-4-yl-1,3-thiazol-4-yl)-1H-pyrazol-5-yl]pyrazolo[1,5-a]pyrimidine-3-carboxamide], for which the IC50 is under 1 µM. Regarding `Cc1ccc(-n2nc(-c3ccc(=O)n(C)c3)cc2NC(=O)c2cnn3cccnc23)cc1` [Example 337, N-[3-(1-methyl-6-oxo-1,6-dihydropyridin-3-yl)-1-(4-methylphenyl)-1H-pyrazol-5-yl]pyrazolo[1,5-a]pyrimidine-3-carboxamide], the concentration for half-maximal inhibition (IC50) was under 1 µM. Same read-out and setting: next, `Cc1ccc(-n2nc(-c3c(F)cccc3OCc3ccccc3)cc2NC(=O)c2cnn3cccnc23)cc1` [Example 339, N-{3-[2-(benzyloxy)-6-fluorophenyl]-1-(4-methylphenyl)-1H-pyrazol-5-yl}pyrazolo[1,5-a]pyrimidine-3-carboxamide]: under 1 µM; `CCN(CC)S(=O)(=O)c1ccc(-c2cc(NC(=O)c3cnn4cccnc34)n(-c3ccc(C)cc3)n2)c(C)c1` [Example 340, N-{3-[4-(diethylsulfamoyl)-2-methylphenyl]-1-(4-methylphenyl)-1H-pyrazol-5-yl}pyrazolo[1,5-a]pyrimidine-3-carboxamide]: under 1 µM; `Cc1ccc(-n2nc(-c3ccc(S(=O)(=O)C(C)C)cc3)cc2NC(=O)c2cnn3cccnc23)cc1` [Example 341, N-[3-{4-[(1-methylethyl)sulfonyl]phenyl}-1-(4-methylphenyl)-1H-pyrazol-5-yl]pyrazolo[1,5-a]pyrimidine-3-carboxamide]: under 1 µM. Still for that read-out and setting: the same measure for `Cc1ccc(-n2nc(-c3cccc(NS(C)(=O)=O)c3)cc2NC(=O)c2cnn3cccnc23)cc1` [Example 346, N-[1-(4-methylphenyl)-3-{3-[(methylsulfonyl)amino]phenyl}-1H-pyrazol-5-yl]pyrazolo[1,5-a]pyrimidine-3-carboxamide]: under 1 µM.

One may read the IC50 as the concentration needed to halve the response being measured. A higher IC50 goes with a need for much substance.

The record behind these values is patent US9169260B2 (MERCK SHARP & DOHME CORP., priority 2011, dated 2015).
